Measurements reported in patent US4382935A, “Analgesic drug containing a derivative of benzylpiperazine” (Buzas; Andre, priority 1980, dated 1983).
Several values for one entry are separate records, joined by “and”; a condition that tells them apart may be missing. Equal values may be shown once.

Experiments:
[1] = target: T1, guinea-pig ileum (Cavia porcellus, UniProt P31389); test: Antagonism with respect to histamine on isolated organ; format: cell-based; conditions: agonist histamine
T1 construct: the organ on which this action has been studied is the guinea-pig ileum; from tissue; host or cells: isolated guinea-pig ileum
Description: (§1) These interactions are sought on isolated organs which are maintained in a state of survival in a nutrient liquid. The contractions of these organs are recorded on a kymograph by means of an isotonic mechanism.
(§2) An agonist is added to the nutrient liquid bath, either alone or after addition of an antagonist, to increasing concentrations which serve to plot cumulative dose-response curves.
In this test, the organ on which this action has been studied is the guinea-pig ileum. The nutrient liquid employed is Tyorode, the agonist is histamine and the antagonist is the product under study.

[2] = Acute toxicity in mice (DL50), peroral; conditions: mouse, in vivo, po, mortality over 48 hours
Description: The acute toxicity is evaluated according to the mortality observed during a period of 48 hours on batches of four mice which have received perorally 100, 200, 400, 800 and 1600 mg/kg of the compound under study.

[3] = target: morphine-compound cerebral receptors; test: Fixation on morphine-compound cerebral receptors (displacement of tritiated etorphin); format: binding; conditions: rat-brain homogenate, 1 mg/ml protein, 30 minutes at 35° C; read-out: CI50 (displacement of tritiated etorphin)
Description: It is sought to determine the affinity of the products under study by means of their capacity for displacement of tritiated etorphin in a rat-brain homogenate (containing 1 mg/ml of protein) over a period of 30 minutes at 35° C. This test consists in determining the value CI50 corresponding to the concentration of products which are capable of inhibiting 50% of the specific radioactive ligand bond.

[4] = tested on: mice; test: Antagonism produced by Naloxone in the Siegmund test; format: in vivo
Description: (§3) One hour after peroral administration of the product under study to batches of twelve mice per dose, phenylbenzoquinone in solution in a proportion of 0.02% in water containing 5% ethyl alcohol is administered by intraperitoneal injection in a proportion of 0.25 ml per mouse of 20 g.
The dose DE50 (which produces a 50% reduction in the number of contortions with respect to the reference animals) is calculated on the basis of the dose/effect relation. The following results are thus obtained:
This antagonism is sought in the Siegmund test performed on mice with phenylbenzoquinone as described earlier. Naloxone is administered by subcutaneous injection at a fixed dose at the same time as the product under study.

[5] = tested on: rat fundus; test: Antagonism produced by harmine on rat fundus; format: cell-based; conditions: product as agonist, harmine as antagonist
Description: as §1, §2
The organ studied in this case is the rat fundus the nutrient liquid is the Kreps liquid, the agonist corresponds to the product under study and the antagonist is harmine.

[6] = tested on: mice; test: Heating-plate test performed on mice (Eddy test); format: in vivo; conditions: peroral, one hour before test, plate at 56.5° C; for ED30: Mus musculus, po, 1 h, read-out: DE30 (30% increase in licking time)
Description: This test has been carried out in accordance with the method described by N. B. Eddy (J. Pharmacol: 1932, 45, 339-359).
One hour after the product under study has been administered perorally to batches of twelve mice per dose, the time taken by the mice to lick their front paws is measured, the mice having been placed on a plate heated to a temperature of 56.5° C.
The dose DE30 (which produces a 30% increase in licking time with respect to the reference animals) is calculated on the basis of the dose/effect relation.

[7] = tested on: rat fundus; test: Agonism on the rat fundus; format: cell-based; conditions: product under study as agonist
Description: as §1, §2
The organ under study is the rat fundus, the nutrient liquid is the Kreps liquid and the agonist is the product under study.

[8] = tested on: mice; test: Siegmund test with phenylbenzoquinone in mice; format: in vivo; conditions: Mus musculus, po, 1 h, peroral, one hour before phenylbenzoquinone i.p., read-out: DE50 (50% reduction in the number of contortions)
Description: This test has been performed in accordance with the method described by Siegmund, Cadmus and Lu ("A method for evaluating both non-narcotic and narcotic analgesics", Proc. Soc. Exp. Biol. Med., 1957, 95, 729-731).
as §3
The dose DE50 (which produces a 50% reduction in the number of contortions with respect to the reference animals) is calculated on the basis of the dose/effect relation.

[9] = target: T2, rat fundus (Rattus norvegicus, UniProt P30994); test: Antagonism with respect to serotonin on isolated organ; format: cell-based; conditions: for nature of antagonism with respect to serotonin: rat fundus, agonist serotonin
T2 construct: The organ under study is the rat fundus; from tissue; host or cells: isolated rat fundus
Description: as §1, §2
The organ under study is the rat fundus, the nutrient liquid employed is Kreps liquid, the agonist is serotonin and the antagonist is the product under study.

T2 sequence (P30994 whole entry): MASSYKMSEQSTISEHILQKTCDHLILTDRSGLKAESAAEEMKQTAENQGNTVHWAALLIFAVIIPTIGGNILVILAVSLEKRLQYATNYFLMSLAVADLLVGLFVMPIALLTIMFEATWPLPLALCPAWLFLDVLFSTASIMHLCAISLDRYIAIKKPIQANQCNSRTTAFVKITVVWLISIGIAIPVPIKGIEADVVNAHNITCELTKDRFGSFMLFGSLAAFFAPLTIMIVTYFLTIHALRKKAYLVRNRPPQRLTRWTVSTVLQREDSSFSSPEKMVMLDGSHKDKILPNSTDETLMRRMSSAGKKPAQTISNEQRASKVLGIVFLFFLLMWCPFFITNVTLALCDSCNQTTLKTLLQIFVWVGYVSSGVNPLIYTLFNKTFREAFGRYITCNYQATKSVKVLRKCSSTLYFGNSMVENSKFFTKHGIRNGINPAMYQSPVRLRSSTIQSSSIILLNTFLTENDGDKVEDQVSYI
T1 sequence (P31389 whole entry): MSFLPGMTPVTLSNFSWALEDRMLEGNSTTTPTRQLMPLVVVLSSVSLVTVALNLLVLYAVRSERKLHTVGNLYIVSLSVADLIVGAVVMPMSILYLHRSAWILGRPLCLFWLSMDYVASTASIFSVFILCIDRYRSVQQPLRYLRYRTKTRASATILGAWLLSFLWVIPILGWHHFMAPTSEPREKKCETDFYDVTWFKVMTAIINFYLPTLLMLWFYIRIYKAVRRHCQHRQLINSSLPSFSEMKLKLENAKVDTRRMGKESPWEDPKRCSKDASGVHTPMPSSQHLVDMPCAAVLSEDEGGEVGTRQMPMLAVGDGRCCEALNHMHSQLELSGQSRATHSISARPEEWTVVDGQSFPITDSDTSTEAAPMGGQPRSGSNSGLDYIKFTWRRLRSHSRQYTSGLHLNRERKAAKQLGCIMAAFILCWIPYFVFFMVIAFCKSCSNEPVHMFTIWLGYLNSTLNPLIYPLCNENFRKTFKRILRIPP

| Compound | affinity parameter (pA2) with respect to histamine [1] | nature of antagonism with respect to histamine [1] | LD50 at 48 h [2] | IC50 [3] [µM] | antagonism of analgesic effect by Naloxone (conclusion) [4] | nature of antagonism by harmine with respect to the product [5] | ED30 [6] [mg/kg] | DE30 (30% increase in licking time) [6] [micro-moles per kg] | affinity parameter (pD2) as agonist [7] | ED50 [8] | nature of antagonism with respect to serotonin [9] | Kb [9] [µM] |
| --- | --- | --- | --- | --- | --- | --- | --- | --- | --- | --- | --- | --- |
| c1ccc(CN2CCN(c3coc4ccccc34)CC2)cc1 [1-(3'-benzofuryl)-4-benzylpiperazine] | 5.99 | competitive antagonist | 5500 µmol/kg and 1600 mg/kg | > 300 | antagonized by Naloxone | competitive antagonism | 20 | 70 | 7.0 | 22 µmol/kg and 6.5 mg/kg | non-competitive antagonist |  |
| CC(=O)n1cc(N2CCN(Cc3ccccc3)CC2)c2ccccc21 [known compound, 1-acetyl-3-benzylpiperazino-indole] |  | non-competitive antagonist | 3000 µmol/kg and 1000 mg/kg | 103 | not antagonized | non-competitive antagonism | 13 | 40 | 5.4 | 55 µmol/kg and 18 mg/kg | competitive antagonist | 4.57 |
